Experimental findings from patent US9340590B2 (priority 2011, dated 2016) are described below.

Like-named read-outs stand apart in the source and are kept apart here. Positions of bridges follow the written chain, without caps; N, C: chain ends. Non-standard residues stand in square brackets, D forms with d. Residues, ends and D or L forms follow the SMILES beside them. Arg(Me2s) = CN=C(NC)NCCC[C@H](N)C(=O)O

Holding throughout (experiment): cell-based
Assay [1] has as its target T1, hNav1.7 (Homo sapiens, UniProt Q15858). Conditions: Nav1.7 Use IC50.
Assay [2] has as its target T2, hNav1.3 (Homo sapiens, UniProt Q9NY46). It is filed as cell-based. Particulars: Nav1.3 Use IC50.
For assay [3], the target named is T1, hNav1.7. Type of assay: cell-based. Conditions: IonWorks Quattro, use-dependent block, hNav1.7; read-out: IWQ Use Nav1.7. For orientation: In patch-clamp work, channel activity is measured electrically.
In assay [4] the target is T2, hNav1.3. Conditions: IonWorks Quattro, use-dependent block, hNav1.3; read-out: IWQ Use Nav1.3.
Assay [5] has as its target T3, hNav1.5 (Homo sapiens, UniProt Q14524). Conditions: IonWorks Quattro, use-dependent block, hNav1.5; read-out: IWQ Use Nav1.5.
Assay [6] concerns the target T3, hNav1.5.

T2 sequence (Q9NY46 whole entry, looked up): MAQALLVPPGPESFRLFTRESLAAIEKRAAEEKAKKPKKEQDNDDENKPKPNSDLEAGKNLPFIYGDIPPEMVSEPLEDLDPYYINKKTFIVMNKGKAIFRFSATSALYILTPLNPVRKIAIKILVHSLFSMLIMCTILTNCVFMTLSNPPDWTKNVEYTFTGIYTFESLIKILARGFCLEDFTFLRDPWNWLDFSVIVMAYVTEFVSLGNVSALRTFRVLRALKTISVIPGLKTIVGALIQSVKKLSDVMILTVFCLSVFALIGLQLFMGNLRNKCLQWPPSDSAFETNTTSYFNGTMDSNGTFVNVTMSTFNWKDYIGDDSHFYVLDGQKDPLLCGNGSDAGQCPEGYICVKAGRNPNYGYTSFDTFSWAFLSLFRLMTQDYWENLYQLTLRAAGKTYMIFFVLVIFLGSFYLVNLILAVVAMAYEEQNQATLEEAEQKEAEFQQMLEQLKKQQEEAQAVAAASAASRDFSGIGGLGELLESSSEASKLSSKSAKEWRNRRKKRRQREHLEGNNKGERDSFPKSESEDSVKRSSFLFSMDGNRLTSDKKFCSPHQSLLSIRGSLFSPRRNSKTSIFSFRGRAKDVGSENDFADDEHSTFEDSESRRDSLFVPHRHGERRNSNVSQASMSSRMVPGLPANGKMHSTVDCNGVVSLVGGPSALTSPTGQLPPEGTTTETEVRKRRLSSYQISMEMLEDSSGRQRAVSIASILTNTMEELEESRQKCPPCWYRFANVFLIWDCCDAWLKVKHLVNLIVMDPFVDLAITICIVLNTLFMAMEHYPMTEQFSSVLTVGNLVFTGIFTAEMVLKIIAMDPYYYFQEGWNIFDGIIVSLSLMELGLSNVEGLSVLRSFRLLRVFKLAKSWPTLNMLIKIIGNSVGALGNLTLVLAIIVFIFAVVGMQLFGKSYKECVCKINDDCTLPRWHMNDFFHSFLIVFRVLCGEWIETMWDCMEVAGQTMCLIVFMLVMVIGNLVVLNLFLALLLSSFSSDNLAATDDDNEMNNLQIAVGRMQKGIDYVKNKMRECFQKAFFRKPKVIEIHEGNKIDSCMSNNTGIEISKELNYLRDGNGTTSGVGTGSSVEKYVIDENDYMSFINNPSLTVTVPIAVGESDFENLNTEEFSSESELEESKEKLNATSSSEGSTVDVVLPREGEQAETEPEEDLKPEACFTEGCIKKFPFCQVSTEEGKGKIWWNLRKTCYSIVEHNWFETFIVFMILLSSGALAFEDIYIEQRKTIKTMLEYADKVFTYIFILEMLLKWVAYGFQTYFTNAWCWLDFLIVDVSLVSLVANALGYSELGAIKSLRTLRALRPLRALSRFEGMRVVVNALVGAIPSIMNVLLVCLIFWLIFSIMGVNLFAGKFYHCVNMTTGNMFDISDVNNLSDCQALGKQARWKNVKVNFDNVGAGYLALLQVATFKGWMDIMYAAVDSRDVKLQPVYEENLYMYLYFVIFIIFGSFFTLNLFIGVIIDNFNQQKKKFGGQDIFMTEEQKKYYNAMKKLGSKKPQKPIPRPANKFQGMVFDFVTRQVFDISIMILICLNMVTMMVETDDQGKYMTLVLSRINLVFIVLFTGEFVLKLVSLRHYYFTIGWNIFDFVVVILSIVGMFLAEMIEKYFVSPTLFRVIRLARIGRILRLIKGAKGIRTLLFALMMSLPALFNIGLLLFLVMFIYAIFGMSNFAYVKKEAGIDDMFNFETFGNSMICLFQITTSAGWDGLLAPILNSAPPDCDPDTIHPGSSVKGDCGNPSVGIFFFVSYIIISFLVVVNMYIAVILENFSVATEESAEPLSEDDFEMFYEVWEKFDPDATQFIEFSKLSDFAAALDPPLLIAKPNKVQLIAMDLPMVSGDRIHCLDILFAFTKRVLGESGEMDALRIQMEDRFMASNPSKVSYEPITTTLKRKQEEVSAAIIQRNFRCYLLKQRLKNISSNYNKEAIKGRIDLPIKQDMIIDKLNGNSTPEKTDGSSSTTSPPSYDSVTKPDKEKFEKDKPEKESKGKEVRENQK
T1 sequence (Q15858 whole entry, looked up): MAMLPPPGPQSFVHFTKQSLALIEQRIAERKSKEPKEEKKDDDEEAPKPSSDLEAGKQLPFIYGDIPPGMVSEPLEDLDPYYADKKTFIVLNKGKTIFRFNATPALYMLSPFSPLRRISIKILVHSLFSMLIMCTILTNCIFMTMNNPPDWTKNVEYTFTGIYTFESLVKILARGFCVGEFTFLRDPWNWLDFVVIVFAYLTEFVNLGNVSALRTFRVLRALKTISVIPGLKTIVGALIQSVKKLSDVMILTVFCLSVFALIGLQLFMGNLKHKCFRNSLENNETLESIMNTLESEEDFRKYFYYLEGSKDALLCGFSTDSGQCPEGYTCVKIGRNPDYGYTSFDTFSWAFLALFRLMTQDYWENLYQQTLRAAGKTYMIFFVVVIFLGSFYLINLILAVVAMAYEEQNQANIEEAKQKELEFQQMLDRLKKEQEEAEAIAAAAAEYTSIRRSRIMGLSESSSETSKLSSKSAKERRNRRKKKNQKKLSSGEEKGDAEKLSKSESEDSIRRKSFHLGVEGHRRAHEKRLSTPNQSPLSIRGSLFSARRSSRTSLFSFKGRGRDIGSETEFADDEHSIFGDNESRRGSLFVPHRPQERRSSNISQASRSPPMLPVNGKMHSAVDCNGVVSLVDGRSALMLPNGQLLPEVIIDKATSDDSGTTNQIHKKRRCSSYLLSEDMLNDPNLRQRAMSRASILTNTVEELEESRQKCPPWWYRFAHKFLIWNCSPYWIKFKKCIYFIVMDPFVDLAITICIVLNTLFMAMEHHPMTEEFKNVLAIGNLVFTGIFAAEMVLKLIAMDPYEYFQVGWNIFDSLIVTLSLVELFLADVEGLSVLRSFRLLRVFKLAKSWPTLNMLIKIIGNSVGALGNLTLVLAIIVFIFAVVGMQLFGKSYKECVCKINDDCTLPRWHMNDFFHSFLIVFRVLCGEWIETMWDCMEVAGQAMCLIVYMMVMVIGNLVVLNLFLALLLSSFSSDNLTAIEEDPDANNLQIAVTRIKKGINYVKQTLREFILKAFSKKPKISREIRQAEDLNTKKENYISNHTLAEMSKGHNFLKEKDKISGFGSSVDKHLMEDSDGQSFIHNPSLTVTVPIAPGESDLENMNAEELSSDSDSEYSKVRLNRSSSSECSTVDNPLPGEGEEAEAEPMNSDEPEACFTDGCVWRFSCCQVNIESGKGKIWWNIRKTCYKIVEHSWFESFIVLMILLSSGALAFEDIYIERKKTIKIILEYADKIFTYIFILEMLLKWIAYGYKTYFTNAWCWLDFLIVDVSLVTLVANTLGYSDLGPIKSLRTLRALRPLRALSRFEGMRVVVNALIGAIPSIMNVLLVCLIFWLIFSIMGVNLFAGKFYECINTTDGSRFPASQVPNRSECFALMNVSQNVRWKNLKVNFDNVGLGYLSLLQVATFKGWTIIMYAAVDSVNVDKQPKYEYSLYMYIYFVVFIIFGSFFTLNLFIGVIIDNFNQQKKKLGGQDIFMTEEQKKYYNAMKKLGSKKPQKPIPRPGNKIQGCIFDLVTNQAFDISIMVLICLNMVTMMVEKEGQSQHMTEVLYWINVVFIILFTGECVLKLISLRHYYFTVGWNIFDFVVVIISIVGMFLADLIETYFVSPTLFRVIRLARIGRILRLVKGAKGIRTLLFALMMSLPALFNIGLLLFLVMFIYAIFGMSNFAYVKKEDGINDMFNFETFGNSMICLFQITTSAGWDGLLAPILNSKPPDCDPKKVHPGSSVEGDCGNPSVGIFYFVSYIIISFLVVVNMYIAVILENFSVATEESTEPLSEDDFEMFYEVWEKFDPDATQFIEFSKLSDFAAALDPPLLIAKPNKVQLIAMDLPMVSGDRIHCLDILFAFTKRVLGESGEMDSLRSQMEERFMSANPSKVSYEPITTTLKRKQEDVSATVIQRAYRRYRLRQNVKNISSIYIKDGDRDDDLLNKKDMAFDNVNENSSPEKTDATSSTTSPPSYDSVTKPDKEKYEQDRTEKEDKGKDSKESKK

For `CC[C@H](C)[C@@H]1NC(=O)[C@@H]2CSSC[C@@H]3NC(=O)[C@H](C(C)C)NC(=O)[C@H](CC(C)C)NC(=O)[C@H](CC(N)=O)NC(=O)[C@@H]4CCCN4C(=O)[C@H](CCCNC(=N)N)NC(=O)[C@H](CSSC[C@H](NC(=O)[C@@H](N)CC(=O)O)C(=O)N[C@@H](CC(C)C)C(=O)NCC(=O)N[C@@H](C)C(=O)N[C@@H](CCSC)C(=O)N[C@@H](CCCNC(=N)N)C(=O)N[C@@H](CCCCN)C(=O)N2)NC(=O)[C@H](CSSC[C@@H](C(=O)N[C@@H](CCCCN)C(=O)N[C@@H](Cc2ccc(O)cc2)C(=O)N[C@H](C(=O)N[C@@H](Cc2ccccc2)C(N)=O)C(C)C)NC(=O)[C@H](Cc2c[nH]c4ccccc24)NC(=O)[C@H](CCCCN)NC(=O)[C@H](Cc2cnc[nH]2)NC(=O)[C@H](CC(C)C)NC(=O)[C@H](CCCNC(=N)N)NC(=O)[C@H](CO)NC3=O)NC(=O)[C@H](CCCCN)NC(=O)[C@H](CC(=O)O)NC(=O)[C@H](CC(N)=O)NC(=O)[C@H](CC(=O)O)NC(=O)[C@@H]2CCCN2C1=O` [[Ala5;Leu26]GpTx-1(1-34)] (H-DCLGAMRKCIPDNDKCCRPNLVCSRLHKWCKYVF-NH2; disulfide 2-17, 9-23, 16-30), the IC50 against hNav1.7 [1] stood at 0.049 µM; against hNav1.3 [2], 0.47 µM.

Regarding `CC[C@H](C)[C@@H]1NC(=O)[C@@H]2CSSC[C@@H]3NC(=O)[C@H](C(C)C)NC(=O)[C@H](CC(C)C)NC(=O)[C@H](CC(N)=O)NC(=O)[C@@H]4CCCN4C(=O)[C@H](CCCNC(=N)N)NC(=O)[C@H](CSSC[C@H](NC(=O)[C@@H](N)CC(=O)O)C(=O)N[C@@H](CC(C)C)C(=O)NCC(=O)N[C@@H](C)C(=O)N[C@@H](Cc4ccccc4)C(=O)N[C@@H](CCCNC(=N)N)C(=O)N[C@@H](CCCCN)C(=O)N2)NC(=O)[C@H](CSSC[C@@H](C(=O)N[C@@H](CCCCN)C(=O)N[C@@H](Cc2ccc(O)cc2)C(=O)N[C@H](C(=O)N[C@@H](Cc2ccccc2)C(N)=O)C(C)C)NC(=O)[C@H](Cc2c[nH]c4ccccc24)NC(=O)[C@H](CCCNC(=N)N)NC(=O)[C@H](Cc2cnc[nH]2)NC(=O)[C@H](CC(C)C)NC(=O)[C@H](CCCNC(=N)N)NC(=O)[C@H](CO)NC3=O)NC(=O)[C@H](CCCCN)NC(=O)[C@H](CC(=O)O)NC(=O)[C@H](CC(N)=O)NC(=O)[C@H](CC(=O)O)NC(=O)[C@@H]2CCCN2C1=O` [[Ala5;Phe6;Leu26;Arg28]GpTx-1(1-34)] (H-DCLGAFRKCIPDNDKCCRPNLVCSRLHRWCKYVF-NH2; disulfide 2-17, 9-23, 16-30), the figures for the IC50 against hNav1.7 [1] and at hNav1.3 [2] were 0.002 µM and 0.008 µM, respectively.

Take `CC[C@H](C)[C@@H]1NC(=O)[C@@H]2CSSC[C@@H]3NC(=O)[C@H](C(C)C)NC(=O)[C@H](CC(C)C)NC(=O)[C@H](CC(N)=O)NC(=O)[C@@H]4CCCN4C(=O)[C@H](CCCNC(=N)N)NC(=O)[C@H](CSSC[C@H](NC(=O)[C@@H](N)CC(=O)O)C(=O)N[C@@H](CC(C)C)C(=O)NCC(=O)N[C@@H](C)C(=O)N[C@@H](Cc4ccccc4)C(=O)N[C@@H](CCCNC(=N)N)C(=O)N[C@@H](CCCCN)C(=O)N2)NC(=O)[C@H](CSSC[C@@H](C(=O)N[C@@H](CCCCN)C(=O)N[C@@H](Cc2ccc(O)cc2)C(=O)N[C@H](C(=O)N[C@@H](Cc2ccccc2)C(N)=O)C(C)C)NC(=O)[C@H](Cc2c[nH]c4ccccc24)NC(=O)[C@H](CCCCN)NC(=O)[C@H](Cc2cnc[nH]2)NC(=O)[C@H](CC(C)C)NC(=O)[C@H](CCCNC(=N)N)NC(=O)[C@H](CO)NC3=O)NC(=O)[C@H](CCCCN)NC(=O)[C@H](CC(=O)O)NC(=O)[C@H](CC(N)=O)NC(=O)[C@H](CC(=O)O)NC(=O)[C@@H]2CCCN2C1=O` [[Ala5;Phe6;Leu26]GpTx-1(1-34)] (H-DCLGAFRKCIPDNDKCCRPNLVCSRLHKWCKYVF-NH2; disulfide 2-17, 9-23, 16-30): the IC50 at hNav1.3 [2] stood at 0.011 µM.

`CC[C@H](C)[C@@H]1NC(=O)[C@@H]2CSSC[C@@H]3NC(=O)[C@H](C(C)C)NC(=O)[C@H](CC(C)C)NC(=O)[C@H](CC(N)=O)NC(=O)[C@@H]4CCCN4C(=O)[C@H](CCCNC(=N)N)NC(=O)[C@H](CSSC[C@H](NC(=O)[C@@H](N)CC(=O)O)C(=O)N[C@@H](CC(C)C)C(=O)NCC(=O)N[C@@H](C)C(=O)N[C@@H](Cc4c[nH]c5ccccc45)C(=O)N[C@@H](CCCNC(=N)N)C(=O)N[C@@H](CCCCN)C(=O)N2)NC(=O)[C@H](CSSC[C@@H](C(=O)N[C@@H](CCCCN)C(=O)N[C@@H](Cc2ccc(O)cc2)C(=O)N[C@H](C(=O)N[C@@H](Cc2ccccc2)C(N)=O)C(C)C)NC(=O)[C@H](Cc2c[nH]c4ccccc24)NC(=O)[C@H](CCCCN)NC(=O)[C@H](Cc2cnc[nH]2)NC(=O)[C@H]([C@@H](C)O)NC(=O)[C@H](CCCNC(=N)N)NC(=O)[C@H](CO)NC3=O)NC(=O)[C@H](CCCCN)NC(=O)[C@H](CC(=O)O)NC(=O)[C@H](CC(N)=O)NC(=O)[C@H](CC(=O)O)NC(=O)[C@@H]2CCCN2C1=O` [[Ala5;Trp6]GpTx-1(1-34)] (H-DCLGAWRKCIPDNDKCCRPNLVCSRTHKWCKYVF-NH2; disulfide 2-17, 9-23, 16-30): the figures for the IC50 on hNav1.7 [1] and against hNav1.3 [2] were 0.057 µM and 0.081 µM, respectively.

Consider `CC[C@H](C)[C@@H]1NC(=O)[C@@H]2CSSC[C@@H]3NC(=O)[C@H](C(C)C)NC(=O)[C@H](CC(C)C)NC(=O)[C@H](CC(N)=O)NC(=O)[C@@H]4CCCN4C(=O)[C@H](CCCNC(=N)N)NC(=O)[C@H](CSSC[C@H](NC(=O)[C@@H](N)CC(=O)O)C(=O)N[C@@H](CC(C)C)C(=O)NCC(=O)N[C@@H](Cc4ccccc4)C(=O)N[C@@H](CCSC)C(=O)N[C@@H](CCCNC(=NC)NC)C(=O)N[C@@H](CCCCN)C(=O)N2)NC(=O)[C@H](CSSC[C@@H](C(=O)N[C@@H](CCCCN)C(=O)N[C@@H](Cc2ccc(O)cc2)C(=O)N[C@H](C(=O)N[C@@H](Cc2ccccc2)C(N)=O)C(C)C)NC(=O)[C@H](Cc2c[nH]c4ccccc24)NC(=O)[C@H](CCCCN)NC(=O)[C@H](Cc2c[nH]cn2)NC(=O)[C@H]([C@@H](C)O)NC(=O)[C@H](CCCNC(=N)N)NC(=O)[C@H](CO)NC3=O)NC(=O)[C@H](CCCCN)NC(=O)[C@H](CC(=O)O)NC(=O)[C@H](CC(N)=O)NC(=O)[C@H](CC(=O)O)NC(=O)[C@@H]2CCCN2C1=O` [[SDMA7]GpTx-1(1-34)], for which the IC50 came out at 0.24 µM on hNav1.7 [3]; 0.12 µM on hNav1.3 [4]; 10.3 µM on hNav1.5 [5]; 0.006 µM against hNav1.7 [1]; 14 µM against hNav1.5 [6].

`CC[C@H](C)[C@@H]1NC(=O)[C@@H]2CSSC[C@@H]3NC(=O)[C@H](C(C)C)NC(=O)[C@H](CC(C)C)NC(=O)[C@H](CC(N)=O)NC(=O)[C@@H]4CCCN4C(=O)[C@H](CCCNC(=N)N)NC(=O)[C@H](CSSC[C@H](NC(=O)[C@@H](N)CC(=O)O)C(=O)N[C@@H](CC(C)C)C(=O)NCC(=O)N[C@@H](Cc4ccccc4)C(=O)N[C@@H](CCSC)C(=O)N[C@@H](CCCNC(=N)N)C(=O)N[C@@H](CCCNC(=NC)NC)C(=O)N2)NC(=O)[C@H](CSSC[C@@H](C(=O)N[C@@H](CCCCN)C(=O)N[C@@H](Cc2ccc(O)cc2)C(=O)N[C@H](C(=O)N[C@@H](Cc2ccccc2)C(N)=O)C(C)C)NC(=O)[C@H](Cc2c[nH]c4ccccc24)NC(=O)[C@H](CCCCN)NC(=O)[C@H](Cc2c[nH]cn2)NC(=O)[C@H]([C@@H](C)O)NC(=O)[C@H](CCCNC(=N)N)NC(=O)[C@H](CO)NC3=O)NC(=O)[C@H](CCCCN)NC(=O)[C@H](CC(=O)O)NC(=O)[C@H](CC(N)=O)NC(=O)[C@H](CC(=O)O)NC(=O)[C@@H]2CCCN2C1=O` [[SDMA8]GpTx-1(1-34)] (H-DCLGFMR[Arg(Me2s)]CIPDNDKCCRPNLVCSRTHKWCKYVF-NH2; disulfide 2-17, 9-23, 16-30): the IC50 on hNav1.7 [3] is 0.2 µM; at hNav1.3 [4] it was 0.2 µM; at hNav1.5 [5], 9.05 µM; at hNav1.7 [1] it was 0.005 µM; against hNav1.5 [6] it was over 10 µM.

As for `CC[C@H](C)[C@@H]1NC(=O)[C@@H]2CSSC[C@@H]3NC(=O)[C@H](C(C)C)NC(=O)[C@H](CC(C)C)NC(=O)[C@H](CC(N)=O)NC(=O)[C@@H]4CCCN4C(=O)[C@H](CCCNC(=N)N)NC(=O)[C@H](CSSC[C@H](NC(=O)[C@@H](N)CC(=O)O)C(=O)N[C@@H](CC(C)C)C(=O)NCC(=O)N[C@@H](Cc4ccccc4)C(=O)N[C@@H](CCSC)C(=O)N[C@@H](CCCNC(=N)N)C(=O)N[C@@H]([C@@H](C)O)C(=O)N2)NC(=O)[C@H](CSSC[C@@H](C(=O)N[C@@H](CCCCN)C(=O)N[C@@H](Cc2ccc(O)cc2)C(=O)N[C@H](C(=O)N[C@@H](Cc2ccccc2)C(N)=O)C(C)C)NC(=O)[C@H](Cc2c[nH]c4ccccc24)NC(=O)[C@H](CCCCN)NC(=O)[C@H](Cc2c[nH]cn2)NC(=O)[C@H]([C@@H](C)O)NC(=O)[C@H](CCCNC(=N)N)NC(=O)[C@H](CO)NC3=O)NC(=O)[C@H](CCCCN)NC(=O)[C@H](CC(=O)O)NC(=O)[C@H](CC(N)=O)NC(=O)[C@H](CC(=O)O)NC(=O)[C@@H]2CCCN2C1=O` [[Thr8]GpTx-1(1-34)] (H-DCLGFMRTCIPDNDKCCRPNLVCSRTHKWCKYVF-NH2; disulfide 2-17, 9-23, 16-30), the IC50 is 0.35 µM at hNav1.7 [3]; 0.15 µM on hNav1.3 [4]; 9.86 µM on hNav1.5 [5]; 0.009 µM on hNav1.7 [1]; over 10 µM against hNav1.5 [6].
